Reference: the supplement of paper PMC8960247
± gives the standard error.

Key:
[1] = test system: 621-102 (TSC2-deficient); assay: relative viability vs DMSO; higher = less cytotoxic; conditions: serum: 10% FBS, 72 h
[2] = test system: 621-103 (TSC2-rescued); assay: as above; conditions: serum: 10% FBS, 72 h
[3] = test system: 621-102 (TSC2-deficient); assay: relative viability vs DMSO (fraction); higher = less cytotoxic; conditions: serum: 0.1% FBS, 72 h
[4] = test system: UMB1949 (TSC2-deficient); assay: as above; conditions: serum: 0.1% FBS, 72 h;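 note: renal angiomyolipoma cell lines screened in 384-well plates, viability normalized per plate to DMSO-treated cells, each plate carrying 50 nM rapamycin and 1 µM staurosporine controls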

| SMILES | relative viability ([1]; 0.0001 µM) [%] | relative viability ([1]; 0.001 µM) [%] | relative viability ([1]; 0.01 µM) [%] | relative viability ([1]; 0.1 µM) [%] | relative viability ([1]; 1 µM) [%] | relative viability ([1]; 10 µM) [%] | relative viability ([2]; 0.0001 µM) [%] | relative viability ([2]; 0.001 µM) [%] | relative viability ([2]; 0.01 µM) [%] | relative viability ([2]; 0.1 µM) [%] | relative viability ([2]; 1 µM) [%] | relative viability ([2]; 10 µM) [%] | relative viability ([3]; 0.0128 nM) | relative viability ([3]; 0.064 nM) | relative viability ([3]; 0.32 nM) | relative viability ([3]; 1.6 nM) | relative viability ([3]; 8 nM) | relative viability ([3]; 40 nM) | relative viability ([3]; 200 nM) | relative viability ([3]; 1000 nM) | relative viability ([3]; 5000 nM) | relative viability ([4]; 0.0128 nM) | relative viability ([4]; 0.064 nM) | relative viability ([4]; 0.32 nM) | relative viability ([4]; 1.6 nM) | relative viability ([4]; 8 nM) | relative viability ([4]; 40 nM) | relative viability ([4]; 200 nM) | relative viability ([4]; 1000 nM) | relative viability ([4]; 5000 nM) |
| --- | --- | --- | --- | --- | --- | --- | --- | --- | --- | --- | --- | --- | --- | --- | --- | --- | --- | --- | --- | --- | --- | --- | --- | --- | --- | --- | --- | --- | --- | --- |
| CCc1cccc(CC)c1NC(=O)N1Cc2[nH]nc(NC(=O)c3ccc(N4CCN(C)CC4)cc3)c2C1 | 100 ± 7.8 | 86.5 ± 5.1 | 101 ± 3.2 | 91.7 ± 2.3 | 60.9 ± 2 | 30.4 ± 1.4 | 103 ± 1.6 | 101.9 ± 0.41 | 104.5 ± 0.47 | 103 ± 1.4 | 64.8 ± 1.1 | 17.8 ± 0.74 | 1.02 | 0.947 | 1.01 | 0.767 | 0.524 | 0.292 | 0.0956 | 0.0612 | 0.00895 | 0.986 | 1.13 | 1.17 | 0.98 | 0.853 | 0.0445 | 0.00761 | 0.00148 | 0.000776 |
| Cc1cc(Nc2cc(CN3CCOCC3)c3nc(C)c(Cc4ccc(Cl)cc4F)n3n2)n[nH]1 | 109 ± 2.8 | 108 ± 1.6 | 97.1 ± 3.9 | 101 ± 1.6 | 95.8 ± 1.3 | 26.9 ± 0.53 | 106.8 ± 0.47 | 96.94 ± 0.68 | 90.05 ± 0.81 | 98.4 ± 5.3 | 87.2 ± 2.1 | 8.52 ± 0.44 | 1.15 | 1.05 | 1.08 | 0.98 | 1.05 | 0.925 | 0.787 | 0.014 | 0.000958 | 1.1 | 1 | 1.03 | 0.938 | 1 | 0.885 | 0.753 | 0.0134 | 0.000916 |
| Cc1cnc(NC(=O)Nc2cc(Br)c(C)cc2OC[C@@H]2CNCCO2)cn1 | 72.1 ± 3.7 | 87.9 ± 6.2 | 95 ± 2.5 | 75.8 ± 2.3 | 29.1 ± 0.86 | 26.8 ± 0.86 | 109.5 ± 0.45 | 103.7 ± 0.67 | 102.8 ± 0.59 | 109 ± 4.1 | 84.09 ± 0.55 | 33.7 ± 0.83 | 0.474 | 0.234 | 0.185 | 0.103 | 0.0749 | 0.0522 | 0.0206 | 0.0139 | 0.0111 | 0.911 | 0.655 | 0.375 | 0.158 | 0.27 | 0.00749 | 0.0015 | 0.00258 | 0.00665 |
| Cn1cc(CNCC2CCN(c3ncc(C(=O)NO)cn3)CC2)c2ccccc21 | 95.9 ± 2.5 | 86.5 ± 1.7 | 59.3 ± 0.89 | 36.84 ± 0.15 | 25.2 ± 0.97 | 18.08 ± 0.036 | 91.4 ± 0.56 | 78.47 ± 0.52 | 44.98 ± 0.16 | 3.52 ± 0.045 | 2.06 ± 0.065 | 1.27 ± 0.15 | 1.02 | 0.835 | 0.708 | 0.585 | 0.288 | 0.0238 | 0.00256 | 0.000673 | 0.000759 | 1.08 | 0.949 | 0.9 | 0.687 | 0.00555 | 0.00221 | 0.0013 | 0.000408 | 0.000355 |
| c1ccc2c(-c3cnn4cc(-c5ccc(N6CCNCC6)cc5)cnc34)ccnc2c1 | 92.1 ± 4.3 | 95.1 ± 3.5 | 92.2 ± 3.1 | 91.6 ± 2.6 | 71.9 ± 2.9 | 0.885 ± 0.12 | 90.6 ± 2.2 | 104 ± 0.35 | 93.2 ± 1.9 | 88 ± 1.8 | 62.5 ± 2.2 | 0.919 ± 0.12 | 0.953 | 0.778 | 0.956 | 0.795 | 0.719 | 0.83 | 0.534 | 0.0661 | 0.0132 | 1.1 | 1.14 | 1.15 | 1.08 | 1.07 | 1.1 | 0.943 | 0.00737 | 0.0056 |
| CC(C)[C@H](C(=O)Nc1ccc(C(=O)NO)cc1)c1ccccc1 [AR-42] |  |  |  |  |  |  |  |  |  |  |  |  | 0.993 | 1.12 | 1.01 | 1.02 | 0.76 | 0.563 | 0.416 | 0.389 | 0.0646 | 1.03 | 1.11 | 1.12 | 1.07 | 0.89 | 0.548 | 0.0124 | 0.00772 | 0.00643 |
| CC(C)c1cc(C(C)C)c(CC(=O)NS(=O)(=O)Oc2c(C(C)C)cccc2C(C)C)c(C(C)C)c1 [Avasimibe] |  |  |  |  |  |  |  |  |  |  |  |  | 1.07 | 0.675 | 1.2 | 1.1 | 1.08 | 1.53 | 1.4 | 0.32 | 0.0125 | 1.13 | 1.12 | 1.19 | 1.06 | 1.08 | 1.1 | 1.02 | 0.00835 | 0.00834 |
| CCC[C@H](Nc1nc(-c2ccc(NC(=O)NCC)c(OC)c2)ncc1C)c1cccnc1 [CYT997] | 87.8 ± 1.3 | 95.67 ± 0.75 | 48.6 ± 1.6 | 39.1 ± 0.56 | 36.2 ± 0.95 | 41 ± 1.1 | 82.2 ± 1.5 | 78.28 ± 0.4 | 40.2 ± 0.82 | 26.3 ± 2.2 | 24.3 ± 0.3 | 25.4 ± 2 |  |  |  |  |  |  |  |  |  | 0.622 | 0.0694 | 0.00719 | 0.0079 | 0.00595 | 0.00742 | 0.00575 | 0.00558 | 0.00511 |
| CC[C@@]1(O)C(=O)OCc2c1cc1n(c2=O)Cc2cc3ccccc3nc2-1 [Camptothecin] |  |  |  |  |  |  |  |  |  |  |  |  | 0.843 | 0.818 | 0.747 | 0.485 | 0.166 | 0.178 | 0.00844 | 0.00416 | 0.00456 | 0.995 | 0.913 | 0.83 | 0.129 | 0.0117 | 0.00478 | 0.00188 | 0.00182 | 0.00462 |
| Nc1ccn([C@@H]2O[C@H](CO)[C@@H](O)[C@@H]2O)c(=O)n1 [Cytarabine] |  |  |  |  |  |  |  |  |  |  |  |  | 1.24 | 1.08 | 1.14 | 0.885 | 1.01 | 0.505 | 0.244 | 0.096 | 0.0178 | 0.98 | 0.941 | 0.967 | 0.962 | 0.974 | 0.929 | 0.176 | 0.00531 | 0.0022 |
